The molecules below were run on INS-1E cells (assay: Luciferase Insulin Secretion Assay (proinsulin-Gaussia luciferase reporter)). Details: glucose dependence of insulin secretion; Z-score in the presence of 16.7 mM glucose.
Type: cell-based, rat
Parameters: key to Activity: Active: a compound is identified as active if the compound has a Z-score greater than 3 in the presence of 16.7 mM glucose; Partial activity indicates that the compound does promote insulin secretion (at lower Z-scores); Lost Glucose Dependence: In some cases, insulin secretion was promoted at both measured insulin concentrations
Excerpt: A high-throughput luminescent insulin secretion assay was developed and performed to identify compounds that amplified insulin secretion only in the presence of a permissive glucose environment (FIG. 3). The assay used in compound screening is described in International Patent Publication No. WO2013070796A3, PCT/US2012/063982, and in Burns et al., High-Throughput Luminescent Reporter of Insulin Secretion for Discovering Regulators of Pancreatic Beta-Cell Function. Cell Metab. 2015 Jan. 6; 21(1):126-37.
The assay is a luminescent insulin secretion assay created by inserting Gaussia luciferase within the C-peptide portion of the insulin prohormone. Gaussia luciferase was chosen because of its small size and bright luciferase signal. To ensure full activity of the luciferase, a version was used that was codon-optimized for expression in mammalian cells. The enzyme was flanked with additional cleavage sites for prohormone convertase 2 (PC2), such that no extra amino acids should be present on the ends of the enzyme after processing within the vesicles (FIG. 4). Rat (INS-1E; Merglen et al., 2004) beta-cell lines stably expressing the reporter construct were generated. Assays using this cell type are referred to herein as Luciferase Insulin Secretion Assay.
A search for glucose-dependent insulin secretagogues was conducting by screening 384,216 compounds at a single concentration (10 μM) in duplicate using the Luciferase Insulin Secretion Assay, to identify those that increase insulin secretion only in the presence of high glucose (11.1 mM) (FIG. 6). These assays were performed in 1536 well format. A Z′ factor of 0.35 was obtained with respect the positive control (300 μM IBMX). The cutoff value selected was 45% activation, which was 3-4 standard deviations above background (solid uppermost line; FIG. 6).
For standard secretion assays, INS-1E cells were plated in 96-well format, preincubated for 1 hr in Krebs Ringer Buffer (KRB) with 2.8 mM glucose, and then stimulated for 1 hr in fresh KRB containing varying amounts of glucose and compounds. Insulin or C-peptide concentration was determined using an ELISA (Mercodia), following the manufacturer's protocol. Luciferase activity was determined from the same samples by adding the coelenterazine substrate to the supernatant to a final concentration of 10 μM and reading on a standard plate reader (BioTek).
INS-1E cells were expanded to 80% confluence in their growth medium, washed once in PBS, and preincubated for 1 hr at 37° C. in KRB with 2.8 mM glucose. Cells were then dissociated, spun at 300×g for 2 min, resuspended in fresh KRB without glucose, and filtered through 40 μm mesh (Becton Dickinson). Next, the cells were counted and diluted in KRB to 1×10^6 cells per ml, and glucose was added as required for each experiment. Cells were then seeded in 384-well format, 3×10^4 cells in 30 μl per well, using a Multidrop Combi device (Thermo Scientific). Compounds were pinned into each well using a Vario robot (CyBio) to a final concentration of 30 μM, and the plates were then incubated for 2 hr at 37° C. For assays involving a transfer step, the plates were then centrifuged at 300×g for 2 min, and 20 μl of supernatant was transferred to a new 384-well plate. Coelenterazine substrate was then added to a final concentration of 10 μM, and luciferase activity was determined using a standard plate reader (BioTek).
In the case of `Cc1cccc(NC(=O)c2ccc(OCc3ccnnc3)cc2)c1C` [Compound 59, N-(2,3-Dimethyl-phenyl)-4-(pyridazin-4-ylmethoxy)-benzamide], the Activity is reported as “Inactive”.
`Cc1cccc(NC(=O)c2ccc(OCc3ccncc3)cc2)c1C` [Compound 60, N-(2,3-Dimethyl-phenyl)-4-(pyridin-4-ylmethoxy)-benzamide] was tested, and the Activity was “Inactive”.
`Cc1cccc(NC(=O)c2ccc(OCc3cccnc3)cc2)c1C` [Compound 61, N-(2,3-Dimethyl-phenyl)-4-(pyridin-3-ylmethoxy)-benzamide] was tested, and the Activity was “Inactive”.
`Cc1cccc(NC(=O)c2ccc(OCc3ccccn3)cc2)c1C` [Compound 62] was tested, and the Activity was “Inactive”.
`Cc1cccc(NC(=O)c2ccc(OCc3cccnc3C)cc2)c1C` [Compound 63, N-(2,3-Dimethyl-phenyl)-4-(2-methyl-pyridin-3-ylmethoxy)-benzamide] was tested, and the Activity was “Inactive”.
With `Cc1ccncc1COc1ccc(C(=O)Nc2cccc(C)c2C)cc1` [Compound 64, N-(2,3-Dimethyl-phenyl)-4-(4-methyl-pyridin-3-ylmethoxy)-benzamide] the Activity was “Inactive”.
For `COc1ncccc1COc1ccc(C(=O)Nc2cccc(C)c2C)cc1` [Compound 65, N-(2,3-Dimethyl-phenyl)-4-(2-methoxy-pyridin-3-ylmethoxy)-benzamide], the Activity was “Inactive”.
For `Cc1cccc(NC(=O)c2ccc(OCc3cnccc3Cl)cc2)c1C` [Compound 66, 4-(4-Chloro-pyridin-3-ylmethoxy)-N-(2,3-dimethyl-phenyl)-benzamide], the Activity was “Inactive”.
`Cc1cccc(NC(=O)c2ccc(OCc3cccnc3Cl)cc2)c1C` [Compound 67, 4-(2-Chloro-pyridin-3-ylmethoxy)-N-(2,3-dimethyl-phenyl)-benzamide] was tested, and the Activity was “Inactive”.
`Cc1noc(C)c1COc1ccc(C(=O)Nc2cccc(Cl)c2Cl)cc1` [Compound 68, N-(2,3-Dichloro-phenyl)-4-(3,5-dimethyl-isoxazol-4-ylmethoxy)-benzamide] was tested, and the Activity was “Active”.
With `Cc1cccc(NC(=O)c2ccc(OCc3c(C)noc3C)cc2)c1C#N` [Compound 69, N-(2-Cyano-3-methyl-phenyl)-4-(3,5-dimethyl-isoxazol-4-ylmethoxy)-benzamide] the Activity was “Active”.
`Cc1cccc(NC(=O)c2ccc(OCc3c(C)noc3C)cc2)c1CO` [Compound 70] was tested, and the Activity was “Active”.
In the case of `Cc1noc(C)c1COc1ccc(C(=O)Nc2cccc(Cl)c2C)cc1` [Compound 72, N-(3-Chloro-2-methyl-phenyl)-4-(3,5-dimethyl-isoxazol-4-ylmethoxy)-benzamide], the Activity is reported as “Active”.
`Cc1noc(C)c1COc1ccc(C(=O)Nc2cccc3c2CCCC3)cc1` [Compound 73, 4-(3,5-Dimethyl-isoxazol-4-ylmethoxy)-N-(5,6,7,8-tetrahydro-naphthalen-1-yl)benzamide] was tested, and the Activity was “Inactive”.
With `Cc1noc(C)c1COc1ccc(C(=O)Nc2cccc3ccccc23)cc1` [Compound 74, 4-(3,5-Dimethyl-isoxazol-4-ylmethoxy)-N-naphthalen-1-yl-benzamide] the Activity was “Inactive”.
`Cc1cccc(NC(=O)c2ccc(OCc3c(C)noc3C)cc2)c1` [Compound 75] was tested, and the Activity was “Inactive”.
For `Cc1ccccc1NC(=O)c1ccc(OCc2c(C)noc2C)cc1` [Compound 76], the Activity was “Inactive”.
`Cc1cccc(C)c1NC(=O)c1ccc(OCc2c(C)noc2C)cc1` [Compound 77] was tested, and the Activity was “Inactive”.
With `Cc1cccc(NC(=O)c2ccc(OCc3c(C)noc3C)cc2)c1Cl` [Compound 78, N-(2-Chloro-3-methyl-phenyl)-4-(3,5-dimethyl-isoxazol-4-ylmethoxy)-benzamide] the Activity was “Inactive”.
For `Cc1noc(C)c1COc1ccc(C(=O)N2CCc3ccccc32)cc1` [Compound 79], the Activity was “Inactive”.
`Cc1noc(C)c1COc1ccc(C(=O)N2CCCc3ccccc32)cc1` [Compound 80] was tested, and the Activity was “Inactive”.
For `Cc1noc(C)c1COc1ccc(C(=O)Nc2cccc3c2CCC3)cc1` [Compound 81, 4-(3,5-Dimethyl-isoxazol-4-ylmethoxy)-N-indan-4-yl-benzamide], the Activity was “Inactive”.
